{"source": "patent US20240197869A1", "about": "“HYPERACTIVATORS OF MAMMALIAN DENDRITIC CELLS” (Corner Therapeutics, Inc., priority 2021, published 2024)", "key": {"[1]": {"experiment": "PAMP screen: viability of human moDCs with PRR agonist and 22:0 Lyso PC", "type": "cell-based", "settings": "human, human monocyte-derived dendritic cells (moDCs), No PAMP, 20 μM 22:0 Lyso PC alone, human moDCs, read-out: Relative Viability (%) ± SD", "procedure": "Pathogen-Associated Molecular Pattern (PAMP) Screen. Innate immune signaling pathway agonists were purchased from Invivogen. Lyophilized stocks were reconstituted and stored according to manufacturer's instructions and at recommended concentrations. […] Innate immune signaling agonists were diluted in R10 media to the manufacturer's recommended working concentration and then added onto cells. 22:0 Lyso PC was then reconstituted from a lyophilized stock in R10 and then further diluted. The lipid was added onto cells at a final concentration of 20 μM. Cells were incubated for 2 days, then cultures were collected for endpoint analyses.\nQuantification of Cell Viability."}, "human PBMCs": {"tested_on": "human PBMCs", "experiment": "Cytokine secretion (IL-1β, IFNγ, TNFα) by human PBMCs", "type": "cell-based", "procedure": "Isolation of PBMCs from Whole Blood. PBMCs were isolated from whole blood using density gradient centrifugation with Ficoll-Paque PLUS (Cytivia). Whole blood was diluted 1:1 with PBS, layered on top of Ficoll-Paque PLUS and centrifuged at 1000×g for 30 minutes at room temperature. PBMCs were collected, washed twice in PBS, and incubated with Ack lysis buffer (Lonza) to remove any remaining red blood cells.\nCell Culture and Stimulation. […] Cells were plated at 1×10^5 (canine cells) or 1×10^6 (human cells) per well in 96-well flat bottom tissue culture plates. Lyophilized Vaccigrade R848 (Invivogen) was reconstituted and diluted according to manufacturer's recommendations and added to cells at a final concentration of 1 μg/mL.\nQuantification of Cytokine Secretion. IL-1β secretion from human PBMCs was assessed using one of the following kits: ELISA MAX Deluxe Set Human IL-1β kit (Biolegend), Invitrogen Human IL-1β kit, or the Lumit™ Human IL-1β Immunoassay (Promega). IFNγ secretion from human PBMCs was assessed using the ELISA MAX Deluxe Set Human IFNγ (Biolegend) and TNFα secretion from human PBMCs was assessed using the Human TNFα Uncoated ELISA kit (Invitrogen). ELISAs were performed according to manufacturer's instructions with the following modifications: i) total sample+buffer volume for incubation was reduced from 100 μL to 50 μL; ii) the top standard was prepared at […], with two-fold dilutions to […]; and iii) sample incubation was completed overnight at 4 C on an orbital shaker. Lumit™ assays were performed according to manufacturer's instructions. IL-1β secretion from canine PBMCs was assessed using the Canine IL-1β/IL-1F2 DuoSet ELISA (R&D) according to manufacturer's instructions with the following modifications: i) total sample+buffer volume for incubation was reduced from 100 μL to 50 μL; ii) sample incubation was completed overnight at 4° C. on an orbital shaker. For all ELISAs, absorbance was measured at 450 nm, with a 570 nm correction, using a Spectramax M5e plate reader (Molecular Devices). For Lumit™ assays, luminescence was measured on all wavelengths using a Spectramax M5e plate reader (Molecular Devices) with an integration time of 500 ms. To determine cytokine concentrations in supernatants, sample concentrations were interpolated using a standard curve via 4PL analysis on GraphPad Prism 9 (GraphPad Software). The interpolated results of samples were then adjusted for any dilutions made to the supernatant."}, "[2]": {"tested_on": "human memory CD4+ T cells", "experiment": "Human moDC coculture with memory CD4 T cells: cytokine secretion", "type": "cell-based", "settings": "moDC treated with R848 + lipid; limiting anti-CD3; 2 days after T cell addition", "quoted_text": "Human moDC coculture with memory CD4 T cells. Human monocytes were isolated from leukopheresis products using Miltenyi StraightFrom LeukoPak CD14 microbeads as directed by manufacturer. Custom PBMC isolation microbead kits from Miltenyi were used to separate PBMCs from red blood cells and granulocytes from the same blood products. After PBMC purification, Miltenyi human memory CD4+ T cell isolation kits were used to negatively select the CD45RO+ fraction. Cells were cryogenically stored until ready for use in experiments.\nHuman monocytes were differentiated into dendritic cells as previously described using recombinant human GM-CSF and IL-4 for 6 days. moDCs were plated in R10 media at 5E4 cells/well into 96-well U-bottom microplates for hyperactivations. […] T cell stimulating anti-CD3 antibody was added into the culture (with or without blocking anti-IL-1beta antibody) prior to T cell addition. Autologous frozen memory CD4 T cells were thawed, resuspended in R10 media and added at 2.5×10^5 cells/well (ratio 1:5, DC:T cell). After two days incubation, cell culture supernatant was collected and used for measuring cytokine secretion. Commercially available kits such as Biolegend LegendPlex kits were used as directed by manufacturer's protocol to quantify cytokines of interest.\nFour donors were tested with each experimental condition tested in triplicate. […]"}, "[3]": {"experiment": "Particle size by Dynamic Light Scattering (DLS)", "type": "physicochemical", "settings": "particles of 22:0 Lyso PC and KP407 by solvent evaporation, after 0.45 um filtration", "text": "Particle size was quantified by Dynamic Light Scattering (DLS)."}, "[4]": {"tested_on": "murine, FLT3L-differentiated cDC1 and cDC2 cells", "experiment": "Flow cytometry of surface markers on murine cDC1 and cDC2", "type": "cell-based, mouse", "procedure": "Murine FLT3L-differentiated, bone marrow-derived DC (BMDC) generation. Leg femur and tibia were removed from mice, cut with scissors and flushed into sterile tubes. Bone marrow suspension was treated with ACK for 1 minute, then passed through a 40 um cell strainer. Cells were counted and resuspended in media consisting of complete IMDM containing 10% FBS, penicillin and streptomycin, and supplements of L-glutamine and sodium pyruvate (I10). Cells were then plated at 5E6 bone marrow cells per well in a P12 plate. Recombinant mouse FLT3L (Miltenyi) was added to cultures at 200 ng/mL. Differentiated cells were used for subsequent assays on day 9. The efficiency of differentiation was monitored by flow cytometry using BD Symphony A3, and CD11c+MHC-II+ cells were routinely above 80% of living cells. For each experiment, five mice were used to collect BM and to generate DCs.\nMurine FLT3L-differentiated BMDC (FLT3L-BMDC) hyperactivation. BMDCs were washed with PBS and re-plated in FLT3L-containing 110 at a concentration of 1.5×10^5 cells/well. Stimuli were added to cultures at indicated concentrations for a final volume of 200 uL/well. Twenty-four hours post-stimulation, cell culture supernatant was collected after centrifugation and stored at −20° C. to measure cytokine secretion. IL-1b, IL-6, IL-12p40, and TNF-alpha ELISA were performed using eBioscience Ready-SET-Go! (now ThermoFisher) ELISA kits according to the manufacturer's protocols. Cell viability was measured using Promega's Cell Titer-Glo reagent kits.\nFlow cytometry. After FcR blockade, treated FLT3L-BMDCs were washed and stained in PBS with Live Dead Fixable dye (ThermoFisher) for 20 minutes at 4° C. Cells were then washed again and stained for 20 minutes at 4° C. in MACS buffer (PBS with 1% FCS and 2 mM EDTA) containing the following fluorescently conjugated antibodies purchased from BioLegend: anti-CD11c, anti-I-A/I-E, anti-H-2Kb, anti-SIRPa, anti-CD24, anti-CD40, anti-CD45R, anti-CXCL16 and anti-CCR7. Data were acquired on a BD FACS Symphony (Becton-Dickenson). Data were analyzed using FlowJo software (Tree Star). […]"}, "[5]": {"tested_on": "human monocyte-derived dendritic cells (moDCs)", "experiment": "DAMP screen: viability of human moDCs (CellTiter-Glo)", "experimental": "Danger-Associated Molecular Pattern (DAMP) Screen. After 6 days of differentiation into moDC, cells were collected and counted. Cells were plated at 100,000 cells/well in R10 media in 96-well flat bottom tissue culture-treated plates. LPS, serotype O55:B5 (Enzo Life Sciences) was added to a final concentration of 1 μg/mL in each well. […] Cells were incubated at 37° C., 5% CO2 for two days. Cell cultures were then used for endpoint analyses.\nEndpoint Analyses. After culturing moDCs with PAMPs and DAMPs for two days, supernatant and cell samples were collected for analysis.\n(§1) Quantification of Cell Viability. Cell viability was assessed by quantifying the presence of ATP as an indicator of metabolically active cells using the CellTiter-Glo Luminescent Cell Viability Assay (Promega). Metabolic activity was assessed following manufacturer's instructions. The CellTiter-Glo reagent was mixed with the cell pellets and remaining supernatant, and transferred to a white, opaque 96-well plate. Luminescence was measured on all wavelengths on a Spectramax iD3 plate reader (Molecular Devices) using an integration time of 500 ms. Percent viability was calculated relative to the control condition of moDCs treated with LPS."}, "[6]": {"tested_on": "human monocyte-derived dendritic cells (moDCs)", "experiment": "Lipid titration: viability of human moDCs (CellTiter-Glo)", "experimental": "Lipid Titration. After 6 days of differentiation into moDC, cells were collected and counted. Cells were replated at 100,000 cells/well in R10 media in 96-well flat bottom tissue culture-treated plates. LPS, serotype 055:B5 (Enzo Life Sciences) was added to a final concentration of 1 μg/mL in each well. After the addition of LPS, lipids were prepared. […] After two days of culture, cell cultures were used for endpoint analyses.\nEndpoint Analyses. After culturing moDCs with PAMPs and DAMPs for two days, supernatant and cell samples were collected for analysis. Cells in culture were pelleted by centrifugation at 400×g for 5 min.\nas §1\nStatistical Analyses. […] For each tested condition, cells from each donor were plated to be tested in triplicate."}, "[7]": {"settings": "lipid combined with R848, 2 days"}}, "note": "“Also recorded” adds a separate entry of the source. Read-outs that look alike come from different tables or passages of the source.", "data": [{"smiles": "CCCCCCCCCCCCCCCCCCCCCC(=O)OC[C@@H](O)COP(=O)([O-])OCC[N+](C)(C)C", "note": "[22:0 LYSO PC, 1-behenoyl-2-hydroxy-sn-glycero-3-phosphocholine]", "values": [{"measurement": "viability at 2 days, 20 μM", "setting": "[1]; Table 1-7, 10 donors", "result": 120, "unit": "%"}, {"measurement": "viability at 2 days, 20 μM", "setting": "[1]; Table 1-8", "result": 120, "unit": "%"}, {"measurement": "IL-1β secretion (in words)", "setting": "human PBMCs; lipid 82.5 μM combined with R848 1 μg/mL, 2 days", "result": "elevated; also recorded: comparable or higher"}, {"measurement": "IFNγ secretion, fold change per donor relative to R848 alone (in words)", "setting": "human PBMCs; [7]", "result": "highest fold change per donor; also recorded: comparable or higher"}, {"measurement": "TNFα secretion, fold change per donor relative to R848 alone (in words)", "setting": "human PBMCs; [7]", "result": "highest fold change per donor; also recorded: comparable or higher"}, {"measurement": "IFN-gamma (Th1 response) from cocultured memory CD4 T cells (in words)", "setting": "[2]", "result": "significantly stronger Th1 response"}, {"measurement": "particle diameter", "setting": "[3]", "result": "approximately 1500 nm"}, {"measurement": "CD40 expression (in words)", "setting": "[4]; R848 + 41 uM lipid in 5% KP407, cDC1 and cDC2", "result": "strongly enhanced"}, {"measurement": "MHC class I expression (in words)", "setting": "[4]; R848 + lipid vs R848 alone", "result": "enhanced MHC class I expression on both cDC1 and cDC2 subsets"}, {"measurement": "CCR7 expression (in words)", "setting": "[4]; cDC1, R848 + lipid in KP407 formulation", "result": "increased their CCR7 expression significantly compared to R848 alone"}, {"measurement": "Relative Viability (%) ± SD", "setting": "[5]; 41.3 μM lipid + LPS 1 μg/mL, 2 days, relative to LPS-treated moDCs, Table 1-2", "result": 47.6, "unit": "%"}, {"measurement": "Relative Viability (%) ± SD", "setting": "[5]; 82.5 μM lipid + LPS 1 μg/mL, 2 days, relative to LPS-treated moDCs, Table 1-1", "result": 14.6, "unit": "%"}, {"measurement": "Relative Viability (%) ± SD", "setting": "[5]; 82.5 μM lipid + LPS, selected lipids, Table 1-3 (repeats Table 1-1)", "result": 14.6, "unit": "%"}, {"measurement": "moDC viability (in words)", "setting": "[6]; 10.3 μM lipid + LPS", "result": "retained high viability"}, {"measurement": "Relative Viability (%) ± SD", "setting": "[6]; 10.3 μM lipid + LPS 1 μg/mL, 2 days, relative to LPS-treated moDCs, Table 1-5", "result": 89.1, "unit": "%"}, {"measurement": "moDC viability (in words)", "setting": "[6]; 20.6 μM lipid + LPS", "result": "reduced cell viability somewhat"}]}]}
